Inhibition and Ki data for 31 compounds are collected here from ChEMBL document CHEMBL4680333, “Lipophilic tail modifications of 2-(hydroxymethyl)pyrrolidine scaffold reveal dual sphingosine kinase 1 and 2 inhibitors” (Bioorg Med Chem, 2021).

The structures appear in SMILES notation.

For the first assay, the target named is T1, Sphingosine kinase 2 (Homo sapiens) (UniProt Q9NRA0).
T1 sequence (whole entry): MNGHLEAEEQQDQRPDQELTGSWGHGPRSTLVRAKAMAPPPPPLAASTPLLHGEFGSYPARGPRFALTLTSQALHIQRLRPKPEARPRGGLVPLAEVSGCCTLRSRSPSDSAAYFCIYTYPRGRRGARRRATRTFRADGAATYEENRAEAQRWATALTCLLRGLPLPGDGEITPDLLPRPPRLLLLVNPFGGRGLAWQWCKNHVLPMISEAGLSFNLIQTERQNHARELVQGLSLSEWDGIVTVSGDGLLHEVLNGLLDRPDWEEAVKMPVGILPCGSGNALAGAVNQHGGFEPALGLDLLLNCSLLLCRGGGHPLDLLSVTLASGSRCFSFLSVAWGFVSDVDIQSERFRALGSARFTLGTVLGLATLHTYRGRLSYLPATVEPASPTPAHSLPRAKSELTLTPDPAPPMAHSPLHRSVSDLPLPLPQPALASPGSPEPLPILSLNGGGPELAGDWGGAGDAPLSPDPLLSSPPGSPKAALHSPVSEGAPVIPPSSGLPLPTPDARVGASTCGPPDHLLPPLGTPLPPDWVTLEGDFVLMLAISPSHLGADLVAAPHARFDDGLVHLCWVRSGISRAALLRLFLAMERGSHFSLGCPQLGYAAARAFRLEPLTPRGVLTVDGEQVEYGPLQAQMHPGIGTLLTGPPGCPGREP
In words: Inhibition of recombinant human SphK2 assessed as decrease in [33P]SIP production at 0.3 uM using sphingosine as substrate in presence of [gamma33P]-ATP by scintillation counting method relative to control.
As to `CCCCc1ccc(C#Cc2ccc(CN3CCC[C@@H]3CO)cc2)cc1`, the inhibition was 25%. Turning to `OC[C@H]1CCCN1Cc1ccc(Oc2ccc(-c3ccc(C(F)(F)F)cc3)cc2)cc1`, the inhibition is 0%. Same read-out and setting: to `CCCCCCCCCCCc1ccc(CN2CCC[C@@H]2COC(C)=O)cc1` belongs 2%; to `CCCCCCCCCOc1ccc(CN2CCC[C@@H]2CO)cc1`, 44%. Same read-out and setting: the result for `Cc1cc(/C=C/c2ccc(C(C)(C)C)cc2)ccc1CN1CCC[C@@H]1CO` reads 3%; that for `CCCCCCCCCCCc1ccc(CN2CCC[C@@H]2CO)cc1`, 18%; that for `CCCCCCCCCc1ccc(CN2CCC[C@@H]2CO)cc1`, 44%. `OC[C@H]1CCCN1Cc1ccc(Oc2cccc(-c3cccc(C(F)(F)F)c3)c2)cc1`: the inhibition amounted to 11%. Take `OC[C@H]1CCCN1Cc1ccc(Oc2cccc(-c3ccccc3)c2)cc1`: the inhibition came to 0%. Still for that read-out and setting: the result for `OC[C@H]1CCCN1Cc1ccc(OCc2ccc(C(F)(F)F)cc2)cc1` reads 0%; that for `CCCCCCCCOc1ccc(CN2CCC[C@@H]2CO)cc1`, 1%. Still for that read-out and setting: to `OC[C@H]1CCCN1Cc1ccc(Oc2ccc(-c3cccc(C(F)(F)F)c3)cc2)cc1` belongs 52%; to `CCCCCCCCCCCCc1ccc(CN2CCC[C@@H]2CO)c(C)c1`, 38%; to `CCCCCCCOc1ccc(CN2CCC[C@@H]2CO)cc1`, 0%. The same measure, in the same setting: to `CCCc1ccc(C#Cc2ccc(CN3CCC[C@@H]3CO)cc2)cc1` belongs 0%; to `OC[C@H]1CCCN1Cc1ccc(Oc2cccc(-c3ccc(C(F)(F)F)cc3)c2)cc1`, 1%. For `Cc1ccc(CCc2ccc(CN3CCC[C@@H]3CO)cc2)cc1`, the inhibition was found to be 26%. For the compound `CCCCCc1ccc(CCc2ccc(CN3CCC[C@@H]3CO)cc2)cc1`, the inhibition is 13%. Same read-out and setting: to `CCCCCCCCCCCCc1ccc(CN2CCC[C@@H]2CO)cc1` belongs 37%.

On to `CC(C)(C)c1ccc(Oc2ccc(CN3CCC[C@@H]3CO)cc2)cc1`, for which the inhibition is 22%. Same read-out and setting: to `OC[C@H]1CCCN1Cc1ccc(Oc2ccccc2)cc1` belongs 13%; to `CCCc1ccc(CCc2ccc(CN3CCC[C@@H]3CO)cc2)cc1`, 15%; to `CCCCCCCCCCOc1ccc(CN2CCC[C@@H]2CO)cc1`, 11%. On the same count and under the same terms, to `OC[C@H]1CCCN1Cc1ccc(Oc2ccc(-c3ccccc3)cc2)cc1` belongs 9%. Still for that read-out and setting: to `CC(C)(C)c1cccc(Oc2ccc(CN3CCC[C@@H]3CO)cc2)c1` belongs 11%; to `CCCCCCCCCCc1ccc(CN2CCC[C@@H]2CO)cc1`, 54%. `COc1ccc(CCc2ccc(CN3CCC[C@@H]3CO)cc2)cc1`: the inhibition was determined as 3%. `CCCCc1ccc(CCc2ccc(CN3CCC[C@@H]3CO)cc2)cc1`: the inhibition is 0%.

Regarding `CCCCCc1ccc(C#Cc2ccc(CN3CCC[C@@H]3CO)cc2)cc1`, the inhibition amounted to 19%. The same measure, in the same setting: to `OC[C@H]1CCCN1Cc1ccc(/C=C/c2cccc(C(F)(F)F)c2)cc1` belongs 0%.

For another assay, the target named is T2, Sphingosine kinase 2 (Homo sapiens, UniProt Q9NRA0).
T2 sequence (Q9NRA0 whole entry): T1 sequence (whole entry)
Description: Inhibition of recombinant human SphK2 assessed as decrease in [33P]SIP production using sphingosine as substrate in presence of [gamma33P]-ATP by scintillation counting method
Turning to `CCCCCCCCOc1ccc(COc2ccc(-c3noc([C@@H]4CCCN4C(=N)N)n3)cc2C(F)(F)F)cc1`, the affinity, expressed as Ki, was 400 nM.

`CCCCCCCCCCCCc1ccc(CN2CCC[C@@H]2CO)cc1` displayed a Ki of 951 nM.

One may read the inhibition as the drop in the measured response relative to a control, in per cent. By Ki is commonly meant a dissociation constant, usually derived from enzyme kinetics or from competition with a known ligand. Low readings indicate higher affinity, high ones lower affinity.
